# Reference: patent US11530196B2, “Pyrimidine compound acting on EGFR and ERBB2” (CHINA RESOURCES PHARMACEUTICAL HOLDINGS COMPANY LIMITED, priority 2019, dated 2022)
# Values joined by “and” are separate entries in the source; they are usually repeats but may differ in a detail not shown here. Identical values can stand only once. Like-named read-outs stand apart in the source and are kept apart here.
# How the values were obtained:
# [1] = Compound stability test in plasma (dog); type: in vitro ADME, Beagle
# Description: In this study, mouse, SD rat, Beagle, cynomolgus monkey and human plasma were used as materials to investigate the stability of the tested compounds in the plasma of the above five species. Propantheline, Enalapril, Bisacodyl and Procaine were used as control compounds.
# The experimental conditions for the test compounds were as follows: • test concentration: 2 μM (DMSO ≤0.5%); • incubation times: 0, 10, 30, 60 and 120 minutes; • frozen plasma (from multiple species) was used in the test system; • incubation conditions: 37° C.
# The mixed frozen plasma was thawed in a 37° C. water bath prior to the experiment. Plasma was centrifuged at 4000 rpm for 5 minutes and cleared if there was a clot. The pH will be adjusted to 7.4±0.1 if required.
# The intermediate solution of 1 mM compound and positive control was prepared by diluting 10 mM stock solution with 90 μL of dimethyl sulfoxide. 100 μM solution was prepared by diluting 20 μL of intermediate solution (1 mM) with 180 μL of 45% methanol/water.
# 2 μL of 100 μM solution was added to 98 μL of blank plasma to achieve a final concentration of 2 μM (in duplicate) of the sample, and the sample was incubated in a 37° C. water bath. At each time point (0, 10, 30, 60 and 120 min), 400 μL of termination solution (200 ng/mL toluenesulfonylurea and 200 ng/mL labetalol, 50% ACN/MeOH) was added to precipitate the proteins and mixed thoroughly. […]
# [2] = target: Ba/F3 EGFR-D770_N771insSVD (Homo sapiens, UniProt P00533, DUP768-770, cells depend on it); assay: Anti-proliferation against Ba/F3 exon 20 insertion mutant cells (SVD); type: cell-based, mouse; conditions: CTG, 72 hours, read-out: Mutant cells IC50 (anti-proliferation)
# Source text: RPMI1640 medium was purchased from Hyclone, FBS fetal bovine serum was purchased from GBICO, and trypsin-EDTA were both purchased from Giboco. DPBS was purchased from Corning, penicillin/streptomycin solution was purchased from Hyclone, and Cell-Titer Glo reagent was purchased from Promega (Cat. No. G7572). Ba/F3 EGFR-D770_N771insSVD, Ba/F3 EGFR-H773_V774insNPH, Ba/F3 EGFR-V769_D770insASV, BaF3 ERBB2 A775_G776 ins YVMA, the cell lines were constructed by Beijing Kang Yuan Bochuang Biotechnology Co., Ltd. Plate reading instrument: Envision (PerkinElmer).
# Cells in logarithmic growth phase were harvested and cell counts were performed using a […]. Cell viability was detected by the Taipan Blue rejection assay. The cell concentration was adjusted; the cell suspension was added to a 96-well plate separately. Cells in 96-well plates were incubated overnight at 37° C., 5% CO2, and 95% humidity. To prepare the drug solution, 10 μL of drug solution was added to each well of the 96-well plate inoculated with cells, and three replicate wells were set up for each drug concentration. The cells in the 96-well plates added with drugs were placed at 37° C., 5% CO2, 95% humidity and continued to incubate for 72 hours, after which CTG analysis was performed and the cells were vibrated on an orbital shaker to lyse the cells. The cell plate was placed at room temperature to stabilize the cold light signal, and the cold light values were read. The data were analyzed using GraphPad Prism 7.0 software, and a nonlinear S-curve regression was used to fit the data to derive the dose-effect curve from which the IC50 values were calculated.
# The IC50 of anti-proliferation activity against Ba/F3 Exon20 insertion mutant cells of the compounds of the present disclosure is shown in Table 5.
# Ba/F3 exon 20 insertion mutant cells are cell lines with SVD, NPH, ASV, and YVMA insertion mutations artificially constructed using mouse B cells, and it can be seen from Table 5 that the compounds of the present disclosure have better cellular anti-proliferation activity against the […] exon 20 insertion mutations such as SVD, NPH, ASV, and YVMA, and also show better anti-proliferation activity against common exon 20 insertion mutations such as SVD mutation.
# [3] = Pharmacokinetic study, single intravenous and oral administration in rats; type: in vivo; conditions: rat, plasma; for AUC(0-t): read-out: Exposure of AUC0-last
# Description: The purpose of this experiment was to investigate the pharmacokinetics (PK) of the compounds in different species after single intravenous and single oral administration of the test compounds.
# After intravenous or oral administration, blood samples were collected from the animals, and the actual time of blood collection was recorded. After the blood samples were collected, the samples were immediately transferred to the labelled centrifuge tube containing K2-EDTA, and then centrifuged to obtain plasma. Plasma was transferred to pre-cooled centrifuge tubes, quick-frozen in dry ice and stored in an ultra-low temperature refrigerator at −70±10° C. until LC-MS/MS analysis was performed.
# The plasma drug concentration data of the compounds were processed using pharmacokinetic software with a non-compartmental model. The peak concentration (Cmax) and time to peak (Tmax), as well as the quantifiable end time were obtained directly from the plasma concentration-time curve. The following pharmacokinetic parameters were calculated using the log-linear trapezoidal method: half-life (T1/2), apparent volume of distribution (Vdss), and clearance (Cl), area under the time-plasma concentration curve from point 0 to the end time point (AUC0-last), and initial concentration (C0).
# Chain of Ba/F3 EGFR-D770_N771insSVD (P00533 with tags, fused parts or gaps DUP768-770): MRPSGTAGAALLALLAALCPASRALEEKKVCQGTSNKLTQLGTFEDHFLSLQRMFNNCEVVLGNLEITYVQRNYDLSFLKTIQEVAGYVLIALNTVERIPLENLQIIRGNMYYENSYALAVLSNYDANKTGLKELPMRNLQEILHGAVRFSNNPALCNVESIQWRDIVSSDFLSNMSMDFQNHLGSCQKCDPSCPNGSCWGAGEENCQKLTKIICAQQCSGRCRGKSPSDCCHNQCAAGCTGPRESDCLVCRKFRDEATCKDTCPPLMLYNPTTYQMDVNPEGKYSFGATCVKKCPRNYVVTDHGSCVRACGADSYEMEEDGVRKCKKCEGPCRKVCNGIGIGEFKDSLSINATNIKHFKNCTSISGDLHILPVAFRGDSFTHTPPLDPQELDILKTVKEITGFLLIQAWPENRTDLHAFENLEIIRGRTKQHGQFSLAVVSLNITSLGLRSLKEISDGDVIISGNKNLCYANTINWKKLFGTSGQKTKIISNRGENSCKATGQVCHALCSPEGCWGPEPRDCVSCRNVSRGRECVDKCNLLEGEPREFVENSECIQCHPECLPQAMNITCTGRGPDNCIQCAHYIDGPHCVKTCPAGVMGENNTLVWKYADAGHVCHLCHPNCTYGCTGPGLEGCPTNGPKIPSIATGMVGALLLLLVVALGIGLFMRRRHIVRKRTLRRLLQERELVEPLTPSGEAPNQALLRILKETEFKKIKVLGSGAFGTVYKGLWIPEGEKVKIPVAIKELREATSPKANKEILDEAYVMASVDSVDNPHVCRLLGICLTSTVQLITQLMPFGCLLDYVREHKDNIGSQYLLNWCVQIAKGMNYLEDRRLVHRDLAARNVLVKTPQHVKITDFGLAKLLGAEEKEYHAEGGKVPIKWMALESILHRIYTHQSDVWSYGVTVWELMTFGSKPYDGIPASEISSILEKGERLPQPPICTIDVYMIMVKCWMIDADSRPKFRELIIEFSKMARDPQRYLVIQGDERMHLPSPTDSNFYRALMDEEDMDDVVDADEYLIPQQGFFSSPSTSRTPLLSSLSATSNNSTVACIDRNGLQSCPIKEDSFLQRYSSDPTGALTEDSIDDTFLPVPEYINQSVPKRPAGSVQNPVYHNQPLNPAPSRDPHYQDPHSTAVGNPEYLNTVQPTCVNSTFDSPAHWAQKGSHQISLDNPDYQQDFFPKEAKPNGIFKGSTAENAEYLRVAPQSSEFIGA
smiles,measurement,setting,value
C=CC(=O)Nc1cc(Nc2ncc(C(=O)OC(C)C)c(-c3cn(OC)c4ccccc34)n2)c(OC)cc1N(C)CCN(C)C.CS(=O)(=O)O [Compound 1],In vitro plasma stability (Residual percentage),"[1]; 120 minutes, 2 μM, 37° C.",101.7%
same,half-life at 2 µM,"[1]; beagle, pH 7.4, 37° C., read-out: In vitro plasma half-life T1/2",> 4.82 h
same,GI50,[2],27 nM and 24 nM
same,clearance,[3]; intravenous injection 2 mg/kg,90.5 mL/min/kg
same,half-life,[3]; intravenous injection 2 mg/kg,2.62 h
same,AUC,"[3]; intravenous injection 2 mg/kg, read-out: Exposure of AUC",0.548 µM·h
same,Vd,"[3]; intravenous injection 2 mg/kg, read-out: Vdss",18 L/kg
same,bioavailability,[3]; oral 10 mg/kg,21.6%
same,AUC(0-t),[3]; oral 10 mg/kg,0.593 µM·h
same,bioavailability,[3]; oral 20 mg/kg,57.1%
same,AUC(0-t),[3]; oral 20 mg/kg,3.13 µM·h
same,bioavailability,[3]; oral 50 mg/kg,68.6%
same,AUC(0-t),[3]; oral 50 mg/kg,9.39 µM·h
same,bioavailability,[3]; oral 200 mg/kg,34.5%
same,AUC(0-t),[3]; oral 200 mg/kg,18.9 µM·h
